# Source: ChEMBL document CHEMBL3352200, “Thio-sugar motif of functional CARB-pharmacophore for antineoplastic activity. Part 2” (Bioorg Med Chem Lett, 2014)
# Assays:
# A549 [1] = experiment: Cytotoxicity against human A549 cells after 14 hrs by CCK-8 assay; type: functional, cell-based; conditions: A549, 14 h
# A549 [2] = experiment: Induction of apoptosis in human A549 cells assessed as viable cells at 275 uM after 4 hrs by FITC Annexin-V/propidium iodide staining-based flow cytometry (reference value: 84.40%); type: functional; conditions: A549, 4 h, read-out: Activity
# MCF7 [3] = experiment: Induction of apoptosis in human MCF7 cells assessed as viable cells at 137 uM after 4 hrs by FITC Annexin-V/propidium iodide staining-based flow cytometry (reference value: 70.40%); type: functional; conditions: MCF7, 4 h, read-out: Activity
# HeLa [4] = experiment: Induction of apoptosis in human HeLa cells assessed as viable cells at 17 uM after 4 hrs by FITC Annexin-V/propidium iodide staining-based flow cytometry (reference value: 87.00%); type: functional; conditions: read-out: Activity
# LoVo [5] = experiment: Cytotoxicity against human LoVo cells after 14 hrs by CCK-8 assay; type: functional, cell-based
# MCF7 [6] = experiment: Induction of apoptosis in human MCF7 cells assessed as apoptotic cells at 17 uM after 4 hrs by FITC Annexin-V/propidium iodide staining-based flow cytometry (reference value: 29.60%); type: functional
# MCF7 [7] = experiment: Induction of apoptosis in human MCF7 cells assessed as apoptotic cells at 137 uM after 4 hrs by FITC Annexin-V/propidium iodide staining-based flow cytometry (reference value: 29.60%); type: functional
# [8] = Lipophilicity, log P of the compound; type: physicochemical; conditions: octanol/water
# MCF7 [9] = experiment: Induction of apoptosis in human MCF7 cells assessed as viable cells at 17 uM after 4 hrs by FITC Annexin-V/propidium iodide staining-based flow cytometry (reference value: 70.40%); type: functional; conditions: MCF7, 4 h, read-out: Activity
# HeLa [10] = experiment: Cytotoxicity against human HeLa cells after 14 hrs by CCK-8 assay; type: functional, cell-based
# MCF7 [11] = experiment: Cytotoxicity against human MCF7 cells after 14 hrs by CCK-8 assay; type: functional, cell-based; conditions: MCF7, 14 h
# LoVo [12] = experiment: Induction of apoptosis in human LoVo cells assessed as apoptotic cells at 550 uM after 4 hrs by FITC Annexin-V/propidium iodide staining-based flow cytometry (reference value: 20.50%); type: functional
# [13] = Cytotoxicity against human PNT2 cells at 8.6 to 2200 uM after 14 hrs by CCK-8 assay; type: cell-based; conditions: pnt2, 14 h
# A549 [14] = experiment: Induction of apoptosis in human A549 cells assessed as apoptotic cells at 34 uM after 4 hrs by FITC Annexin-V/propidium iodide staining-based flow cytometry (reference value: 15.60%); type: functional
# HeLa [15] = experiment: Induction of apoptosis in human HeLa cells assessed as apoptotic cells at 17 uM after 4 hrs by FITC Annexin-V/propidium iodide staining-based flow cytometry (reference value: 13.00%); type: functional
# HeLa [16] = experiment: Induction of apoptosis in human HeLa cells assessed as apoptotic cells at 137 uM after 4 hrs by FITC Annexin-V/propidium iodide staining-based flow cytometry (reference value: 13.00%); type: functional
# LoVo [17] = experiment: Induction of apoptosis in human LoVo cells assessed as apoptotic cells at 69 uM after 4 hrs by FITC Annexin-V/propidium iodide staining-based flow cytometry (reference value: 20.50%); type: functional
# HeLa [18] = experiment: Induction of apoptosis in human HeLa cells assessed as viable cells at 137 uM after 4 hrs by FITC Annexin-V/propidium iodide staining-based flow cytometry (reference value: 87.00%); type: functional; conditions: read-out: Activity
# A549 [19] = experiment: Induction of apoptosis in human A549 cells assessed as viable cells at 34 uM after 4 hrs by FITC Annexin-V/propidium iodide staining-based flow cytometry (reference value: 84.40%); type: functional; conditions: A549, 4 h, read-out: Activity
# LoVo [20] = experiment: Induction of apoptosis in human LoVo cells assessed as viable cells at 69 uM after 4 hrs by FITC Annexin-V/propidium iodide staining-based flow cytometry (reference value: 79.50%); type: functional; conditions: read-out: Activity
# A549 [21] = experiment: Induction of apoptosis in human A549 cells assessed as apoptotic cells at 275 uM after 4 hrs by FITC Annexin-V/propidium iodide staining-based flow cytometry (reference value: 15.60%); type: functional
# LoVo [22] = experiment: Induction of apoptosis in human LoVo cells assessed as viable cells at 550 uM after 4 hrs by FITC Annexin-V/propidium iodide staining-based flow cytometry (reference value: 79.50%); type: functional; conditions: read-out: Activity
# A549 [23] = experiment: Induction of apoptosis in human A549 cells assessed as apoptotic cells at 137 uM after 4 hrs by FITC Annexin-V/propidium iodide staining-based flow cytometry (reference value: 15.60%); type: functional
# MCF7 [24] = experiment: Induction of apoptosis in human MCF7 cells assessed as viable cells at 275 uM after 4 hrs by FITC Annexin-V/propidium iodide staining-based flow cytometry (reference value: 70.40%); type: functional; conditions: MCF7, 4 h, read-out: Activity
# LoVo [25] = experiment: Induction of apoptosis in human LoVo cells assessed as apoptotic cells at 275 uM after 4 hrs by FITC Annexin-V/propidium iodide staining-based flow cytometry (reference value: 20.50%); type: functional
# A549 [26] = experiment: Induction of apoptosis in human A549 cells assessed as viable cells at 137 uM after 4 hrs by FITC Annexin-V/propidium iodide staining-based flow cytometry (reference value: 84.40%); type: functional; conditions: A549, 4 h, read-out: Activity
# A549 [27] = experiment: Induction of apoptosis in human A549 cells assessed as viable cells at 17 uM after 4 hrs by FITC Annexin-V/propidium iodide staining-based flow cytometry (reference value: 84.40%); type: functional; conditions: A549, 4 h, read-out: Activity
# LoVo [28] = experiment: Induction of apoptosis in human LoVo cells assessed as apoptotic cells at 34 uM after 4 hrs by FITC Annexin-V/propidium iodide staining-based flow cytometry (reference value: 20.50%); type: functional
# A549 [29] = experiment: Induction of apoptosis in human A549 cells assessed as apoptotic cells at 17 uM after 4 hrs by FITC Annexin-V/propidium iodide staining-based flow cytometry (reference value: 15.60%); type: functional
# MCF7 [30] = experiment: Induction of apoptosis in human MCF7 cells assessed as viable cells at 34 uM after 4 hrs by FITC Annexin-V/propidium iodide staining-based flow cytometry (reference value: 70.40%); type: functional; conditions: MCF7, 4 h, read-out: Activity
# MCF7 [31] = experiment: Induction of apoptosis in human MCF7 cells assessed as apoptotic cells at 275 uM after 4 hrs by FITC Annexin-V/propidium iodide staining-based flow cytometry (reference value: 29.60%); type: functional
# LoVo [32] = experiment: Induction of apoptosis in human LoVo cells assessed as viable cells at 275 uM after 4 hrs by FITC Annexin-V/propidium iodide staining-based flow cytometry (reference value: 79.50%); type: functional; conditions: read-out: Activity
# LoVo [33] = experiment: Induction of apoptosis in human LoVo cells assessed as viable cells at 34 uM after 4 hrs by FITC Annexin-V/propidium iodide staining-based flow cytometry (reference value: 79.50%); type: functional; conditions: read-out: Activity
# MCF7 [34] = experiment: Induction of apoptosis in human MCF7 cells assessed as apoptotic cells at 34 uM after 4 hrs by FITC Annexin-V/propidium iodide staining-based flow cytometry (reference value: 29.60%); type: functional
structure (smiles),measurement,setting,value
O=C(O)c1ccccc1S[C@H]1CC(=O)[C@@H]2OC[C@H]1O2,IC50,A549 [1],311 µM
same,viability at 275 µM,A549 [2],62.2%
same,viability at 137 µM,MCF7 [3],37.5%
same,viability at 17 µM,HeLa [4],75.5%
same,IC50,LoVo [5],641 µM
same,Activity,MCF7 [6],39.1%
same,Activity,MCF7 [7],62.5%
same,logP,[8],1.28
same,viability at 17 µM,MCF7 [9],60.9%
same,IC50,HeLa [10],434 µM
same,IC50,MCF7 [11],218 µM
same,Activity,LoVo [12],62.2%
same,Activity,[13],10%
same,Activity,A549 [14],27.4%
same,Activity,HeLa [15],24.5%
same,Activity,HeLa [16],25.8%
same,Activity,LoVo [17],29.1%
same,viability at 137 µM,HeLa [18],74.2%
same,viability at 34 µM,A549 [19],72.6%
same,viability at 69 µM,LoVo [20],70.9%
same,Activity,A549 [21],37.84%
same,viability at 550 µM,LoVo [22],37.8%
CC(=O)OC[C@H]1O[C@@H](S[C@H]2CC(=O)[C@@H]3OC[C@H]2O3)[C@H](OC(C)=O)[C@@H](OC(C)=O)[C@H]1OC(C)=O,IC50,A549 [1],467 µM
same,Activity,A549 [23],21.9%
same,viability at 275 µM,MCF7 [24],80.8%
same,Activity,LoVo [25],30%
same,viability at 137 µM,A549 [26],78.1%
same,viability at 17 µM,A549 [27],71%
same,viability at 17 µM,HeLa [4],74.1%
same,IC50,LoVo [5],624 µM
same,Activity,LoVo [28],34.9%
same,Activity,A549 [29],29%
same,logP,[8],-1.13
same,IC50,HeLa [10],676 µM
same,viability at 34 µM,MCF7 [30],57.8%
same,IC50,MCF7 [11],344 µM
same,Activity,MCF7 [31],19.2%
same,Activity,[13],10%
same,Activity,HeLa [15],25.9%
same,Activity,HeLa [16],62.8%
same,viability at 137 µM,HeLa [18],37.2%
same,viability at 275 µM,LoVo [32],70%
same,viability at 34 µM,LoVo [33],65.1%
same,Activity,MCF7 [34],42.2%
